The results in this text go back to patent US10723699B2 (Hyundai Pharm Co., Ltd., priority 2015, dated 2020).

In this assay the target is T1, G protein-coupled receptor 119 (GPR-119) (Mesocricetus auratus, UniProt A0A1U8CD06).
T1 construct: hamster-derived β-cells containing G protein-coupled receptor 119 (GPR-119), HIT-T15 cells; host or cells: HIT-T15 (hamster pancreatic β-cells)
T1 sequence (A0A1U8CD06 1-334): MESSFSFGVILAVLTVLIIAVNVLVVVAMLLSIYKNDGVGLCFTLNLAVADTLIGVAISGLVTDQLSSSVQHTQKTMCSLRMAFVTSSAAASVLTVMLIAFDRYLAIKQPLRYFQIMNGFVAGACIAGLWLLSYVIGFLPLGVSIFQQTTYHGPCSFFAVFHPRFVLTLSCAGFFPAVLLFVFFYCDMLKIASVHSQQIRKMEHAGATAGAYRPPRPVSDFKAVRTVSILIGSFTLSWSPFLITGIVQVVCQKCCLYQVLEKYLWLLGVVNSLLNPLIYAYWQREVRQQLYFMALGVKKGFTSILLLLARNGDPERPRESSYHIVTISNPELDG
Description: cAMP activity in HIT-T15 cells (cAMP dynamic kit, FRET). Format: cell-based, hamster. On the procedure: To check whether the cyclohexene derivatives according to the present invention activate cyclic adenosine monophosphate (cAMP), experiments were carried out, as follows.
The HIT-T15 cells were plated on a 96-well plate at 60,000 cells per well. On the next day of plating, the cells were treated with a varying concentration of each of the example compounds according to the present invention, and incubated at 37° C. for an hour. In this case, each of the treated compounds was used at six concentrations, ranging from 0.0032 to 10 μM, to treat the cells.
The cyclic adenosine monophosphate (cAMP) activity was measured according to the manufacturer's instruction using a cAMP dynamic kit commercially available from Cis Bio Inc. (Bedford, Mass.). The cells were lysed, and a level of cAMP was determined by a competitive immunoassay using D2-labeled cAMP and a cryptate-labeled anti-cAMP antibody. Fluorescence was read in Flex Station (Molecular Devices). […] Unlabeled cAMP in the cell lysate competed with the D2-labeled cAMP against the cryptate-labeled antibody. Since a decrease in the measured intensity of the FRET signals represents a level of cAMP in the cells, the cAMP activities of the compounds are calculated as a change in FRET signals by adjusting an amount of dimethyl sulfoxide (DMSO).

Setting [1] is: 1 hour at 37° C., six concentrations 0.0032 to 10 μM, read-out: EC50.

For orientation: EC50 means the midpoint of the concentration-response curve.

Read-outs that look alike come from different tables or passages of the source. Bounds are passed on as bounds.

With `CC(C)c1noc(N2CCC(COc3ccc(C4=CCC(C(=O)NC5CCC5)CC4)cc3F)CC2)n1` (stereo not shown) [Example 364, N-cyclobutyl-4-(3-fluoro-4-((1-(3-isopropyl-1,2,4-oxadiazol-5-yl)piperidin-4-yl)methoxy)phenyl)cyclohex-3-enecarboxamide], under setting [1], the concentration giving a half-maximal response (EC50) stood at 0.085 µM. On to `CC(C)c1noc(N2CCC(COc3ccc(C4=CCC(C(=O)N5CCN(C6CC6)CC5)CC4)cn3)CC2)n1` (stereo not shown) [Example 355, (4-cyclopropylpiperazin-1-yl)(4-(6-((1-(3-isopropyl-1,2,4-oxadiazol-5-yl)piperidin-4-yl)methoxy)pyridin-3-yl)cyclohex-3-enyl)methanone], for which the EC50 reads like this: under setting [1], 0.046 µM; (Table 2, read-out: EC50 value) at most 0.05 µM.

As for `CC(C)c1noc(N2CCC(COc3ccc(C4=CCC(C(=O)N5CCC(N6CCCCC6)CC5)CC4)cc3F)CC2)n1` (stereo not shown) [Example 362, 1,4′-bipiperidin-1′-yl(4-(3-fluoro-4-((1-(3-isopropyl-1,2,4-oxadiazol-5-yl)piperidin-4-yl)methoxy)phenyl)cyclohex-3-enyl)methanone], the EC50 under setting [1] turned out to be 0.18 µM. In the case of `CC(C)=CC(=O)N1CCC(COc2ccc(C3=CCC(C(=O)N4CCOCC4)CC3)cc2F)CC1` (stereo not shown) [Example 451, 1-(4-((2-fluoro-4-(4-(morpholine-4-carbonyl)cyclohex-1-enyl)phenoxy)methyl)piperidin-1-yl)-3-methylbut-2-en-1-one], under setting [1], the EC50 stood at 0.089 µM. Consider `CCc1cnc(N2CCC(COc3ccc(C4=CCC(C(=O)N5CCN(CCO)CC5)CC4)cc3)CC2)nc1` (stereo not shown) [Example 172, (4-(4-((1-(5-ethylpyrimidin-2-yl)piperidin-4-yl)methoxy)phenyl)cyclohex-3-enyl)(4-(2-hydroxyethyl)piperazin-1-yl)methanone], for which the EC50 (Table 2, read-out: EC50 value) was at most 0.05 µM.

Take `CC(C)c1noc(N2CCC(COc3ccc(C4=CCC(C(=O)N5CCC5)CC4)cn3)CC2)n1` (stereo not shown) [Example 339, azetidin-1-yl(4-(6-((1-(3-isopropyl-1,2,4-oxadiazol-5-yl)piperidin-4-yl)methoxy)pyridin-3-yl)cyclohex-3-enyl)methanone]: under setting [1], the EC50 stood at 0.12 µM. For `O=C(C1CC=C(c2ccc(OCC3CCN(C(=O)C4(C(F)(F)F)CCCC4)CC3)c(F)c2)CC1)N1CCOCC1` (stereo not shown) [Example 450, (4-(3-fluoro-4-((1-(1-(trifluoromethyl)cyclopentanecarbonyl)piperidin-4-yl)methoxy)phenyl)cyclohex-3-enyl)(morpholino)methanone], the EC50 was 0.027 µM under setting [1] and at most 0.05 µM (Table 2, read-out: EC50 value).

For the compound `CC(C)c1noc(N2CCC(COc3ccc(C4=CCC(C(=O)N5CCN(CCCO)CC5)CC4)cc3F)CC2)n1` (stereo not shown) [Example 368, (4-(3-fluoro-4-((1-(3-isopropyl-1,2,4-oxadiazol-5-yl)piperidin-4-yl)methoxy)phenyl)cyclohex-3-enyl)(4-(3-hydroxypropyl)piperazin-1-yl)methanone], the half-maximal effective concentration (EC50) reads like this: under setting [1], 0.048 µM; (Table 2, read-out: EC50 value) at most 0.05 µM. As to `CCc1cnc(N2CCC(COc3ccc(C4=CCC(C(=O)N5CCC(CO)CC5)CC4)cc3C#N)CC2)nc1` (stereo not shown) [Example 391, 2-((1-(5-ethylpyrimidin-2-yl)piperidin-4-yl)methoxy)-5-(4-(4-(hydroxymethyl)piperidine-1-carbonyl)cyclohex-1-enyl)benzonitrile], the half-maximal effective concentration (EC50) under setting [1] was determined as 0.027 µM and the EC50 (Table 2, read-out: EC50 value) was at most 0.05 µM. In the same order, the values of `CCc1cnc(N2CCC(COc3ccc(C4=CCC(C(=O)N5CCOCC5)CC4)cn3)CC2)nc1` (stereo not shown) [Example 351, (4-(6-((1-(5-ethylpyrimidin-2-yl)piperidin-4-yl)methoxy)pyridin-3-yl)cyclohex-3-enyl)(morpholino)methanone] are 0.041 µM and at most 0.05 µM. As to `CC(C)(C)OC(=O)N1CCC(COc2ccc(C3=CCC(C(=O)N4CCCC4)CC3)nc2)CC1` (stereo not shown) [Example 312, tert-butyl 4-((6-(4-(pyrrolidine-1-carbonyl)cyclohex-1-enyl)pyridin-3-yloxy)methyl)piperidine-1-carboxylate], under setting [1], the 50% effective concentration (EC50) amounted to 0.12 µM. The same measure, in the same setting: then `CCc1cnc(N2CCC(COc3ccc(C4=CCC(C(=O)N5CCC(O)CC5)CC4)cc3C#N)CC2)nc1` (stereo not shown) [Example 390, 2-((1-(5-ethylpyrimidin-2-yl)piperidin-4-yl)methoxy)-5-(4-(4-hydroxypiperidine-1-carbonyl)cyclohex-1-enyl)benzonitrile], with 0.07 µM. For the compound `CC(C)(C)OC(=O)N1CCC(COc2ccc(C3=CCC(C(=O)N4CCC(C#N)CC4)CC3)nc2)CC1` (stereo not shown) [Example 340, tert-butyl 4-((6-(4-(4-cyanopiperidine-1-carbonyl)cyclohex-1-enyl)pyridin-3-yloxy)methyl)piperidine-1-carboxylate], the concentration for a half-maximal effect (EC50) under setting [1] is 0.028 µM and the EC50 (Table 2, read-out: EC50 value) was at most 0.05 µM.

On to `CCc1cnc(N2CCC(COc3ccc(C4=CCC(C(=O)N5CCC(C#N)CC5)CC4)cc3F)CC2)nc1` (stereo not shown) [Example 321, 1-(4-(4-((1-(5-ethylpyrimidin-2-yl)piperidin-4-yl)methoxy)-3-fluorophenyl)cyclohex-3-enecarbonyl)piperidine-4-carbonitrile], for which the EC50 is 0.028 µM under setting [1] and at most 0.05 µM (Table 2, read-out: EC50 value). The matching figures for `CCc1cnc(N2CCC(COc3ccc(C4=CCC(C(=O)N5CCCC5)CC4)cn3)CC2)nc1` (stereo not shown) [Example 349, (4-(6-((1-(5-ethylpyrimidin-2-yl)piperidin-4-yl)methoxy)pyridin-3-yl)cyclohex-3-enyl)(pyrrolidin-1-yl)methanone]: 0.027 µM and at most 0.05 µM. On to `CCc1cnc(N2CCC(COc3ccc(C4=CCC(C(=O)N5CCC(F)(F)C5)CC4)c(F)c3)CC2)nc1` (single isomer, unassigned; (+)) [Example 462, (+)-(3,3-difluoropyrrolidin-1-yl)(4-(4-((1-(5-ethylpyrimidin-2-yl)piperidin-4-yl)methoxy)-2-fluorophenyl)cyclohex-3-enyl)methanone], for which the EC50 is 0.014 µM under setting [1] and at most 0.05 µM (Table 2, read-out: EC50 value). The matching figures for `O=C(OC(C(F)(F)F)C(F)(F)F)N1CCC(COc2ccc(C3=CCC(C(=O)N4CCOCC4)CC3)cc2F)CC1` (stereo not shown) [Example 446, 1,1,1,3,3,3-hexafluoropropan-2-yl 4-((2-fluoro-4-(4-(morpholine-4-carbonyl)cyclohex-1-enyl)phenoxy)methyl)piperidine-1-carboxylate]: 0.02 µM and at most 0.05 µM. `CC(C)(C)OC(=O)N1CCC(COc2ccc(C3=CCC(C(=O)N4CCOCC4)CC3)nc2)CC1` (stereo not shown) [Example 327, tert-butyl 4-((6-(4-(morpholine-4-carbonyl)cyclohex-1-enyl)pyridin-3-yloxy)methyl)piperidine-1-carboxylate]: under setting [1], the EC50 came to 0.08 µM.

As to `CCc1cnc(N2CCC(COc3ccc(C4=CCC(C(=O)N5CCN(C(=O)NC(C)C)CC5)CC4)cc3)CC2)nc1` (stereo not shown) [Example 413, 4-(4-(4-((1-(5-ethylpyrimidin-2-yl)piperidin-4-yl)methoxy)phenyl)cyclohex-3-enecarbonyl)-N-isopropylpiperazine-1-carboxamide], the EC50 reads like this: under setting [1], 0.025 µM; (Table 2, read-out: EC50 value) at most 0.05 µM. As for `CCc1cnc(N2CCC(COc3ccc(C4=CCC(C(=O)N5CC(F)(F)C(F)(F)C5)CC4)c(F)c3)CC2)nc1` (single isomer, unassigned; (-)) [Example 463, (−)-(4-(4-((1-(5-ethylpyrimidin-2-yl)piperidin-4-yl)methoxy)-2-fluorophenyl)cyclohex-3-enyl)(3,3,4,4-tetrafluoropyrrolidin-1-yl)methanone], the 50% effective concentration (EC50) under setting [1] came to 0.088 µM. For `CCc1cnc(N2CCC(COc3ccc(C4=CCC(C(=O)N5CCCC5)CC4)cc3F)CC2)nc1` (single isomer, unassigned; (-)) [Example 429, (−)-(4-(4-((1-(5-ethylpyrimidin-2-yl)piperidin-4-yl)methoxy)-3-fluorophenyl)cyclohex-3-enyl)(pyrrolidin-1-yl)methanone], the half-maximal effective concentration (EC50) reads like this: under setting [1], 0.021 µM; (Table 2, read-out: EC50 value) at most 0.05 µM. On to `CC(OC(=O)N1CCC(COc2ccc(C3=CCC(C(=O)N4CCCC4)CC3)cc2F)CC1)C(F)(F)F` (stereo not shown) [Example 406, 1,1,1-trifluoropropan-2-yl 4-((2-fluoro-4-(4-(pyrrolidine-1-carbonyl)cyclohex-1-enyl)phenoxy)methyl)piperidine-1-carboxylate], for which the EC50 is 0.036 µM under setting [1] and at most 0.05 µM (Table 2, read-out: EC50 value). The matching figures for `CCc1cnc(N2CCC(COc3ccc(C4=CCC(C(=O)N5CCC(CCO)CC5)CC4)cc3F)CC2)nc1` (single isomer, unassigned; (-)) [Example 430, (−)-(4-(4-((1-(5-ethylpyrimidin-2-yl)piperidin-4-yl)methoxy)-3-fluorophenyl)cyclohex-3-enyl)(4-(2-hydroxyethyl)piperidin-1-yl)methanone]: 0.009 µM and at most 0.05 µM.
